Source: publication PMC6268586, “Effect of Wine and Vinegar Processing of Rhizoma Corydalis on the Tissue Distribution of Tetrahydropalmatine, Protopine and Dehydrocorydaline in Rats” (Molecules, 2012)
Like-named read-outs stand apart in the source and are kept apart here.

Assay: Tissue distribution of THP, DHC and protopine in rat tissues after gastric gavage administration (HPLC-UV, non-compartmental analysis)
Assay type: in vivo, Wistar male rats
Conditions: male, Wistar, po, 26.1 mg/kg; for AUC(0-t): read-out: AUC0–24 h of DHC; for Cmax: read-out: Cmax of DHC; for MRT: read-out: MRT of DHC; for Tmax: read-out: Tmax of DHC
Procedure: The experimental protocol was approved by the University's Animal Ethics Committee. […] Rats had unlimited access to water. Standard food was given until 12 h before the experiments. Rhizoma Corydalis was processed according to Pharmacopoeia of Chinese Medicine and National Guideline of Traditional Chinese Medicinal Plants Processing. Briefly, fresh Rhizoma Corydalis was boiled in water till the pith turn light brown color. Cooked rhizome was sliced into pieces (4 mm, diameter) and dried at 25 °C. Dried slices were mixed with edible vinegar (100:20, rhizome/vinegar, w/v) or yellow wine (100:10, rhizome/wine, w/v) and the slices allowed to completely absorb the vinegar or wine. The soaked slices were then stir-fried in a metallic pan over a low flame till they were completely dry. The processed Rhizoma Corydalis was added with 70% ethanol (1:30 w/v) and sonicated for 1 h at room temperature. The extract was then concentrated to remove the ethanol residue and stored at 4 °C for further use. […] The ethanol extract of the unprocessed Rhizoma Corydalis and THP, DHC and protopine pure compound were used as the controls. Three hundred and sixty healthy rats were used in total and are divided into six groups (Group 1-6, sixty rats per group). Drugs were administrated by gastric gavage method. In order to keep the dose of THP, DHC and protopine constant in each group, the amount of ethanol extract of Rhizoma Corydalis administrated was normalized based on the dose of protopine pure compound used. The dose of THP and DHC pure compound administrated was same with that in the ethanol extract of Rhizoma Corydalis. The details were listed below. […] Rats were administrated with the 70% ethanol extract of unprocessed Rhizoma Corydalis at a dose of 17.75 g extract/kg body weight. […] Rats received the extract of vinegar-processed Rhizoma Corydalis at a dose of 15 g extract/kg rat body weight. Group 3: Rats were administrated with the extract of wine processed Rhizoma Corydalis at a dose of 15.78 g extract/kg body weight. […] Rats received THP pure compound at a dose of 6.45 mg/kg body weight. Group 6: Rats were administrated 26.10 mg of DHC pure compound/kg body weight. […] Brian tissue was further dissected into six parts: cerebrum, cerebellum, diencephalons, brain stem, hippocampus and striatum. All the tissue samples were rinsed with ice-old saline and stored at -20 °C until extraction. Tissue samples were homogenized in three volumes of ice-cold biological saline and centrifuged for 10 min at 10,000 g and 4 °C. An aliquot of the supernatant (0.5 mL) was collected. Liquid-liquid extraction was used to extract THP, DHC and protopine. One hundred microliter of 1.0 μg/mL nuciferin (internal standard) was mixed with 0.5 mL aliquots of the supernatant. […] The supernatant was evaporated completely under the nitrogen stream in a 60 °C water bath. The residue was redissolved in 100 μL of methanol. A CoMetro HPLC system (CoMetro Technology Ltd, South […], NJ, USA) with 6000 PVW detector UV-VIS detector was used. […] Ltd., Liaoning, China). Other chromatographic conditions were: column temperature, 35 °C; mobile phase, acetonitrile-0.1% phosphoric acid (pH 3.0) (30:70 v/v); flow rate, 1 mL/min; wavelength, 280 nm. Pharmacokinetic parameters were estimated by non-compartmental analysis using Equiv Test/PK (Statistical Solutions Ltd., Saugus, MA, USA). The maximum concentration (Cmax) and the time to reach the maximum concentration (Tmax) were directly obtained from the observed value. All data were represented as mean ± SD. Comparison of values between groups was performed using one-way ANOVA followed by Tukey's test for comparisons among four groups.

[1] = diencephalon, rat diencephalons

COc1cc2c(cc1OC)-c1c(C)c3ccc(OC)c(OC)c3c[n+]1CC2 [DHC, dehydrocorydaline]
AUC(0-t) [1]: 210 ± 50 ng·h/mL | Cmax [1]: 80 ± 20 ng/mL | MRT [1]: 5.3 ± 0.12 h | Tmax [1]: 0.52 ± 0.11 h | AUC(0-t) (rat brain stem): 410 ± 60 ng·h/mL | Cmax (rat brain stem): 160 ± 30 ng/mL | MRT (rat brain stem): 4.29 ± 0.15 h | Tmax (rat brain stem): 0.5 h | AUC(0-t) (rat cerebellum): 170 ± 30 ng·h/mL | Cmax (rat cerebellum): 50 ± 20 ng/mL | MRT (rat cerebellum): 5.67 ± 0.32 h | Tmax (rat cerebellum): 0.25 h | AUC(0-t) (rat cerebrum): 150 ± 30 ng·h/mL | Cmax (rat cerebrum): 50 ± 10 ng/mL | MRT (rat cerebrum): 5.39 ± 0.19 h | Tmax (rat cerebrum): 0.25 ± 0.02 h | AUC(0-t) (rat heart): 850 ± 120 ng·h/mL | Cmax (rat heart): 440 ± 130 ng/mL | MRT (rat heart): 8.72 ± 6.38 h | Tmax (rat heart): 0.25 h | AUC(0-t) (rat hippocampus): 270 ± 60 ng·h/mL | Cmax (rat hippocampus): 70 ± 20 ng/mL | MRT (rat hippocampus): 8.43 ± 0.51 h | Tmax (rat hippocampus): 1.08 ± 0.07 h | AUC(0-t) (rat kidney): 890 ± 90 ng·h/mL | Cmax (rat kidney): 310 ± 20 ng/mL | MRT (rat kidney): 4.94 ± 0.12 h | Tmax (rat kidney): 0.25 ± 0.01 h | AUC(0-t) (rat liver): 1570 ± 340 ng·h/mL | Cmax (rat liver): 620 ± 180 ng/mL | MRT (rat liver): 4.85 ± 0.1 h | Tmax (rat liver): 0.25 h | AUC(0-t) (rat lung): 570 ± 130 ng·h/mL | Cmax (rat lung): 370 ± 110 ng/mL | MRT (rat lung): 3.98 ± 0.1 h | Tmax (rat lung): 0.25 ± 0.01 h | AUC(0-t) (rat spleen): 830 ± 190 ng·h/mL | Cmax (rat spleen): 360 ± 80 ng/mL | MRT (rat spleen): 3.26 ± 0.08 h | Tmax (rat spleen): 0.25 ± 0.1 h | AUC(0-t) (rat striatum): 210 ± 40 ng·h/mL | Cmax (rat striatum): 60 ± 20 ng/mL | MRT (rat striatum): 7.27 ± 0.3 h | Tmax (rat striatum): 0.25 ± 0.01 h
